pIC50: −log10 of the molar value.
molecular target: HIV-1 RT wild-type enzyme (Human immunodeficiency virus type 1 group M subtype B (isolate HXB2) (HIV-1), UniProt P04585); experiment: HIV-1 reverse transcriptase inhibitory activity (RT polymerase assay); format: biochemical; details: HIV-1 RT wild-type enzyme 83 pM; RNA-dependent DNA polymerase activity; read-out: IC50
Outline: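 Biotinylated DNA primer annealed to HCV-derived RNA template (16.6 nM final hybrid), with 2 μM dATP/dGTP/dCTP and 66.6 nM Ru-dUTP, after 30 min compound–enzyme preincubation at room temperature; polymerization 90 min at 37 °C, EDTA quench. Product captured on avidin plates, electrochemiluminescence read; IC50 by four-parameter logistic fit versus DMSO and 1 μM efavirenz controls.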

SMILES | pIC50
N#Cc1cc(Cl)cc(Oc2c(C(F)(F)F)ncn(Cc3cc(-c4cccc5c4OCC5)c(=O)[nH]n3)c2=O)c1 [Example 57, 3-chloro-5-((1-((5-(2,3-dihydrobenzofuran-7-yl)-6-oxo-1,6-dihydropyridazin-3-yl)methyl)-6-oxo-4-(trifluoromethyl)-1,6-dihydropyrimidin-5-yl)oxy)benzonitrile] | 7.96
Cc1ccc(-c2cc(Cn3cnc(C(F)(F)F)c(Oc4cc(Cl)cc(C#N)c4)c3=O)n[nH]c2=O)cc1F [Example 58, 3-chloro-5-((1-((5-(3-fluoro-4-methylphenyl)-6-oxo-1,6-dihydropyridazin-3-yl)methyl)-6-oxo-4-(trifluoromethyl)-1,6-dihydropyrimidin-5-yl)oxy)benzonitrile] | 8.40
COc1ccc(F)cc1-c1cc(Cn2cnc(C(F)(F)F)c(Oc3cc(Cl)cc(C#N)c3)c2=O)n[nH]c1=O [Example 59, 3-chloro-5-((1-((5-(5-fluoro-2-methoxyphenyl)-6-oxo-1,6-dihydropyridazin-3-yl)methyl)-6-oxo-4-(trifluoromethyl)-1,6-dihydropyrimidin-5-yl)oxy)benzonitrile] | 6.90
Cc1cc(F)cc(-c2cc(Cn3cnc(C(F)(F)F)c(Oc4cc(Cl)cc(C#N)c4)c3=O)n[nH]c2=O)c1 [Example 60, 3-chloro-5-((1-((5-(3-fluoro-5-methylphenyl)-6-oxo-1,6-dihydropyridazin-3-yl)methyl)-6-oxo-4-(trifluoromethyl)-1,6-dihydropyrimidin-5-yl)oxy)benzonitrile] | 8.15
COc1cc(F)cc(-c2cc(Cn3cnc(C(F)(F)F)c(Oc4cc(Cl)cc(C#N)c4)c3=O)n[nH]c2=O)c1 [Example 61, 3-chloro-5-((1-((5-(3-fluoro-5-methoxyphenyl)-6-oxo-1,6-dihydropyridazin-3-yl)methyl)-6-oxo-4-(trifluoromethyl)-1,6-dihydropyrimidin-5-yl)oxy)benzonitrile] | 7.96
N#Cc1cc(Cl)cc(Oc2c(C(F)(F)F)ncn(Cc3cc(-c4ccc(F)c(F)c4F)c(=O)[nH]n3)c2=O)c1 [Example 62, 3-chloro-5-((6-oxo-1-((6-oxo-5-(2,3,4-trifluorophenyl)-1,6-dihydropyridazin-3-yl)methyl)-4-(trifluoromethyl)-1,6-dihydropyrimidin-5-yl)oxy)benzonitrile] | 8.00
COc1ccc(F)c(-c2cc(Cn3cnc(C(F)(F)F)c(Oc4cc(Cl)cc(C#N)c4)c3=O)n[nH]c2=O)c1 [Example 63, 3-chloro-5-((1-((5-(2-fluoro-5-methoxyphenyl)-6-oxo-1,6-dihydropyridazin-3-yl)methyl)-6-oxo-4-(trifluoromethyl)-1,6-dihydropyrimidin-5-yl)oxy)benzonitrile] | 8.00
N#Cc1cc(Cl)cc(Oc2c(C(F)(F)F)ncn(Cc3cc(-c4ccc5c(c4)CCO5)c(=O)[nH]n3)c2=O)c1 [Example 64, 3-chloro-5-((1-((5-(2,3-dihydrobenzofuran-5-yl)-6-oxo-1,6-dihydropyridazin-3-yl)methyl)-6-oxo-4-(trifluoromethyl)-1,6-dihydropyrimidin-5-yl)oxy)benzonitrile] | 8.52
N#Cc1cc(Cl)cc(Oc2c(C(F)(F)F)ncn(Cc3cc(-c4ccn[nH]4)c(=O)[nH]n3)c2=O)c1 [Example 65, 3-chloro-5-((6-oxo-1-((6-oxo-5-(1H-pyrazol-5-yl)-1,6-dihydropyridazin-3-yl)methyl)-4-(trifluoromethyl)-1,6-dihydropyrimidin-5-yl)oxy)benzonitrile] | 8.30
N#Cc1cc(Cl)cc(Oc2c(C(F)(F)F)ncn(Cc3cc(C4CC4)c(=O)[nH]n3)c2=O)c1 [Example 66, 3-chloro-5-((1-((5-cyclopropyl-6-oxo-1,6-dihydropyridazin-3-yl)methyl)-6-oxo-4-(trifluoromethyl)-1,6-dihydropyrimidin-5-yl)oxy)benzonitrile] | 8.15
CS(=O)(=O)c1ccc(-c2cc(Cn3cnc(C(F)(F)F)c(Oc4cc(Cl)cc(C#N)c4)c3=O)n[nH]c2=O)cc1 [Example 67, 3-chloro-5-((1-((5-(4-(methylsulfonyl)phenyl)-6-oxo-1,6-dihydropyridazin-3-yl)methyl)-6-oxo-4-(trifluoromethyl)-1,6-dihydropyrimidin-5-yl)oxy)benzonitrile] | 7.92
N#Cc1cc(Cl)cc(Oc2c(C(F)(F)F)ncn(Cc3cc(-c4ccc(C(O)C(F)F)cc4)c(=O)[nH]n3)c2=O)c1 (centres unmarked) [Example 69, 3-chloro-5-((1-((5-(4-(2,2-difluoro-1-hydroxyethyl)phenyl)-6-oxo-1,6-dihydropyridazin-3-yl)methyl)-6-oxo-4-(trifluoromethyl)-1,6-dihydropyrimidin-5-yl)oxy)benzonitrile] | 8.00
CS(=O)(=O)c1cccc(-c2cc(Cn3cnc(C(F)(F)F)c(Oc4cc(Cl)cc(C#N)c4)c3=O)n[nH]c2=O)c1 [Example 70, 3-chloro-5-((1-((5-(3-(methylsulfonyl)phenyl)-6-oxo-1,6-dihydropyridazin-3-yl)methyl)-6-oxo-4-(trifluoromethyl)-1,6-dihydropyrimidin-5-yl)oxy)benzonitrile] | 7.82
N#Cc1cc(Cl)cc(Oc2c(C(F)(F)F)ncn(Cc3cc(-c4cn[nH]c4)c(=O)[nH]n3)c2=O)c1 [Example 71, 3-chloro-5-((6-oxo-1-((6-oxo-5-(1H-pyrazol-4-yl)-1,6-dihydropyridazin-3-yl)methyl)-4-(trifluoromethyl)-1,6-dihydropyrimidin-5-yl)oxy)benzonitrile] | 8.30
Cn1cc(-c2cc(Cn3cnc(C(F)(F)F)c(Oc4cc(Cl)cc(C#N)c4)c3=O)n[nH]c2=O)cn1 [Example 72, 3-chloro-5-((1-((5-(1-methyl-1H-pyrazol-4-yl)-6-oxo-1,6-dihydropyridazin-3-yl)methyl)-6-oxo-4-(trifluoromethyl)-1,6-dihydropyrimidin-5-yl)oxy)benzonitrile] | 8.15
N#Cc1cc(Cl)cc(Oc2c(C(F)(F)F)ncn(Cc3cc(-c4cccnc4)c(=O)[nH]n3)c2=O)c1 [Example 73, 3-chloro-5-((6-oxo-1-((6-oxo-5-(pyridin-3-yl)-1,6-dihydropyridazin-3-yl)methyl)-4-(trifluoromethyl)-1,6-dihydropyrimidin-5-yl)oxy)benzonitrile] | 7.96
COc1ccc(-c2cc(Cn3cnc(C(F)(F)F)c(Oc4cc(Cl)cc(C#N)c4)c3=O)n[nH]c2=O)cn1 [Example 74] | 7.77
N#Cc1ccc(-c2cc(Cn3cnc(C(F)(F)F)c(Oc4cc(Cl)cc(C#N)c4)c3=O)n[nH]c2=O)cc1 [Example 75, 3-chloro-5-((1-((5-(4-cyanophenyl)-6-oxo-1,6-dihydropyridazin-3-yl)methyl)-6-oxo-4-(trifluoromethyl)-1,6-dihydropyrimidin-5-yl)oxy)benzonitrile] | 7.70
Cn1nccc1-c1cc(Cn2cnc(C(F)(F)F)c(Oc3cc(Cl)cc(C#N)c3)c2=O)n[nH]c1=O [Example 76, 3-chloro-5-((1-((5-(1-methyl-1H-pyrazo1-5-yl)-6-oxo-1,6-dihydropyridazin-3-yl)methyl)-6-oxo-4-(trifluoromethyl)-1,6-dihydropyrimidin-5-yl)oxy)benzonitrile] | 7.00
N#Cc1cc(Cl)cc(Oc2c(C(F)(F)F)ncn(Cc3cc(-c4ccc(F)nc4)c(=O)[nH]n3)c2=O)c1 [Example 78, 3-chloro-5-((1-((5-(6-fluoropyridin-3-yl)-6-oxo-1,6-dihydropyridazin-3-yl)methyl)-6-oxo-4-(trifluoromethyl)-1,6-dihydropyrimidin-5-yl)oxy)benzonitrile] | 8.22
N#Cc1cc(Cl)cc(Oc2c(C(F)(F)F)ncn(Cc3cc(-c4ccncc4)c(=O)[nH]n3)c2=O)c1 [Example 81, 3-chloro-5-((6-oxo-1-((6-oxo-5-(pyridin-4-yl)-1,6-dihydropyridazin-3-yl)methyl)-4-(trifluoromethyl)-1,6-dihydropyrimidin-5-yl)oxy)benzonitrile] | 8.05
N#Cc1cc(Cl)cc(Oc2c(C(F)(F)F)ncn(Cc3cc(-c4cncc(F)c4)c(=O)[nH]n3)c2=O)c1 [Example 82, 3-chloro-5-((1-((5-(5-fluoropyridin-3-yl)-6-oxo-1,6-dihydropyridazin-3-yl)methyl)-6-oxo-4-(trifluoromethyl)-1,6-dihydropyrimidin-5-yl)oxy)benzonitrile] | 8.15
Cc1ccc(-c2cc(Cn3cnc(C(F)(F)F)c(Oc4cc(Cl)cc(C#N)c4)c3=O)n[nH]c2=O)cn1 [Example 83, 3-chloro-5-((1-((5-(6-methylpyridin-3-yl)-6-oxo-1,6-dihydropyridazin-3-yl)methyl)-6-oxo-4-(trifluoromethyl)-1,6-dihydropyrimidin-5-yl)oxy)benzonitrile] | 7.85
N#Cc1cc(Cl)cc(Oc2c(C(F)(F)F)ncn(Cc3cc(-c4cncc(C#N)c4)c(=O)[nH]n3)c2=O)c1 [Example 84, 5-(6-((5-(3-chloro-5-cyanophenoxy)-6-oxo-4-(trifluoromethyl)pyrimidin-1(6H)-yl)methyl)-3-oxo-2,3-dihydropyridazin-4-yl)nicotinonitrile] | 7.57
COc1cncc(-c2cc(Cn3cnc(C(F)(F)F)c(Oc4cc(Cl)cc(C#N)c4)c3=O)n[nH]c2=O)c1 [Example 85, 3-chloro-5-((1-((5-(5-methoxypyridin-3-yl)-6-oxo-1,6-dihydropyridazin-3-yl)methyl)-6-oxo-4-(trifluoromethyl)-1,6-dihydropyrimidin-5-yl)oxy)benzonitrile] | 7.85
N#Cc1cc(Cl)cc(Oc2c(C(F)(F)F)ncn(Cc3cc(-c4ccc(Cl)nc4)c(=O)[nH]n3)c2=O)c1 [Example 86, 3-chloro-5-((1-((5-(6-chloropyridin-3-yl)-6-oxo-1,6-dihydropyridazin-3-yl)methyl)-6-oxo-4-(trifluoromethyl)-1,6-dihydropyrimidin-5-yl)oxy)benzonitrile] | 8.22
